{"source": "patent US7705146B2", "about": "“Hepatitis C inhibitor peptide analogs” (Boehringer Ingelheim International GmbH, priority 2004, dated 2010)", "origin": "cited, not measured here", "tested_on": "hepatitis C virus", "conditions": "two day clinical trial, patients infected with the hepatitis C virus"}
{"compound": "COc1ccc2c(O[C@@H]3C[C@H]4C(=O)N[C@]5(C(=O)O)C[C@H]5/C=C\\CCCCC[C@H](NC(=O)OC5CCCC5)C(=O)N4C3)cc(-c3csc(NC(C)C)n3)nc2c1", "note": "[BILN 2061]", "values": [{"measurement": "reduction of viral loads in patients", "result": "effective in rapidly reducing viral loads"}]}
